From patent US9999622B2, “Pyrazolothiazole compound and medicine comprising same” (NIPPON SHINYAKU CO., LTD., priority 2014, dated 2018)
Counter-ions that a name gives are not always drawn.

Key:
Assay type in all cases: biochemical
JAK1 = target: T1, JAK1 (Homo sapiens, UniProt P23458); experiment: JAK tyrosine kinase inhibitory activity in the presence of 1 mM ATP (ELISA), JAK1
T1 construct: purchased Carna Biosciences, Inc
Experimental: (§1) 1. Preparation of Test Compound
(§2) The test compound was dissolved in dimethyl sulfoxide (DMSO) to 10 mM and further diluted with DMSO to the concentrations of 1000, 100, 10, 1, 0.1 and 0.01 μM, respectively. For JAK1, these solutions of the test compound at the six concentrations 10 mM, 1000 μM, 100 μM, 10 μM, 1 μM and 0.1 μM were used. For JAK2 and JAK3, these solutions of the test compound at the six concentrations 1000 μM, 100 μM, 10 μM, 1 μM, 0.1 μM and 0.01 μM were used. The test compound solutions were diluted further to 20-fold with an assay buffer to obtain a sample solution. 15 mM Tris-HCl (pH7.5), 0.01 (v/v) % Tween-20 and 1 mM dithiothreitol were used as an assay buffer. DMSO was diluted to 20-fold with the assay buffer and was used as a negative control.
(§3) 2. JAK Tyrosine Kinase Inhibitory Activity in the Presence of 1 mM Atp
(§4) The activity was determined by ELISA method. Each of the sample solutions was added to a streptavidine coated 96-well plate (DELFIA Strip Plate 8×12 well, PerkinElmer) at 10 μL/well (n=2). […] Finally, JAK tyrosine kinase (Carna Biosciences, Inc.), which was previously diluted with the assay buffer to 7.5 nM for JAK1 and 0.75 nM for JAK2 and JAK3, was added to the plate at 20 μL/well, and the plate was incubated at 30° C. for 1 h. The plate was washed four times with buffer (50 mM Tris-HCl (pH 7.5), 150 mM NaCl, 0.02 (v/v) % Tween-20). A blocking buffer (0.1% Bovine Serum Albumin, 50 mM Tris-HCl (pH 7.5), 150 mM NaCl, 0.02 (v/v) % Tween-20) was added to the plate at 150 μL/well and the plate was blocked at 30° C. for 1 h. The blocking buffer was removed, and a horse radish peroxidase-labeled anti-phosphorylated tyrosine antibody (BD Biosciences, Inc.) (diluted to 10000-fold with the blocking buffer) was added to the plate at 100 μL/well, and the plate was incubated at 30° C. for 30 min. The plate was washed with the washing buffer four times, and 3,3′,5,5′-tetramethylbenizidine solution (Nacalai Tesque) was added to the plate at 100 μL/well to develop the color for 10 minutes. To the plate was added 0.1 M sulfuric acid at 100 μL/well to stop the reaction. The absorbance at 450 nm was measured using a microplate reader (BIO-RAD).
(§5) 3. Analysis of the Results

JAK2 = target: T2, JAK2 (Homo sapiens, UniProt O60674); experiment: JAK tyrosine kinase inhibitory activity in the presence of 1 mM ATP (ELISA), JAK2
T2 construct: purchased Carna Biosciences, Inc
Experimental: as §1, §2, §3, §4, §5

JAK3 = target: T3, JAK3 (Homo sapiens, UniProt P52333); experiment: JAK tyrosine kinase inhibitory activity in the presence of 1 mM ATP (ELISA), JAK3
T3 construct: purchased Carna Biosciences, Inc
T3 sequence (P52333 1-1124): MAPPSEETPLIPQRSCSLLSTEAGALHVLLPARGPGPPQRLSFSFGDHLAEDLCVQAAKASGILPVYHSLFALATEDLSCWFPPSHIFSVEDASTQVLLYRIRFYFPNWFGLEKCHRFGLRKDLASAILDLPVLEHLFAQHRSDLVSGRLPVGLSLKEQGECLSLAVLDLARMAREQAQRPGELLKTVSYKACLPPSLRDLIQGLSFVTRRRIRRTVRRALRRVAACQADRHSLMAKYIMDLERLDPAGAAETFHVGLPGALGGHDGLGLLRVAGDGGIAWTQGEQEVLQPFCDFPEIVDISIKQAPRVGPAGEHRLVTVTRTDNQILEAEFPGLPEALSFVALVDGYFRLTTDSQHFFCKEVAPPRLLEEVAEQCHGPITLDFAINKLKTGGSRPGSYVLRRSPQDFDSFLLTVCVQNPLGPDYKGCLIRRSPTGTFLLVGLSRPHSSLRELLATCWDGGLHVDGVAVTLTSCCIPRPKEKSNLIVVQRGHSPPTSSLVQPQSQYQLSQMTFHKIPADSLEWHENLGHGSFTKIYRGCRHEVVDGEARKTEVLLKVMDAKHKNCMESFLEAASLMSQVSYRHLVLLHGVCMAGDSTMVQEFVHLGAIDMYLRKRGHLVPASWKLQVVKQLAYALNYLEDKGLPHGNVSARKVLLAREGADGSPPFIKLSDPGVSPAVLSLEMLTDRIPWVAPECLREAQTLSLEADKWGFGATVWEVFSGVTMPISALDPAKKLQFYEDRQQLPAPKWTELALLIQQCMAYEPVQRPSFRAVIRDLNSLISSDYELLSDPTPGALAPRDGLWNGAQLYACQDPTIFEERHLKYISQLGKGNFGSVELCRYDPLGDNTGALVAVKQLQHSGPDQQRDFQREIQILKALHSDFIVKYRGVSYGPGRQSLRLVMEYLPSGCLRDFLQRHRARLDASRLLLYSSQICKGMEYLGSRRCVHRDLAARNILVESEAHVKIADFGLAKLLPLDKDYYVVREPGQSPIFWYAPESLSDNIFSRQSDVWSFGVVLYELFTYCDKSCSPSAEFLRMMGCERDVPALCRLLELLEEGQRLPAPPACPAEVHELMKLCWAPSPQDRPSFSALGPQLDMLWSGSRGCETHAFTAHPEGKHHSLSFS
Experimental: as §1, §2, §3, §4, §5

T1 sequence (P23458 whole entry): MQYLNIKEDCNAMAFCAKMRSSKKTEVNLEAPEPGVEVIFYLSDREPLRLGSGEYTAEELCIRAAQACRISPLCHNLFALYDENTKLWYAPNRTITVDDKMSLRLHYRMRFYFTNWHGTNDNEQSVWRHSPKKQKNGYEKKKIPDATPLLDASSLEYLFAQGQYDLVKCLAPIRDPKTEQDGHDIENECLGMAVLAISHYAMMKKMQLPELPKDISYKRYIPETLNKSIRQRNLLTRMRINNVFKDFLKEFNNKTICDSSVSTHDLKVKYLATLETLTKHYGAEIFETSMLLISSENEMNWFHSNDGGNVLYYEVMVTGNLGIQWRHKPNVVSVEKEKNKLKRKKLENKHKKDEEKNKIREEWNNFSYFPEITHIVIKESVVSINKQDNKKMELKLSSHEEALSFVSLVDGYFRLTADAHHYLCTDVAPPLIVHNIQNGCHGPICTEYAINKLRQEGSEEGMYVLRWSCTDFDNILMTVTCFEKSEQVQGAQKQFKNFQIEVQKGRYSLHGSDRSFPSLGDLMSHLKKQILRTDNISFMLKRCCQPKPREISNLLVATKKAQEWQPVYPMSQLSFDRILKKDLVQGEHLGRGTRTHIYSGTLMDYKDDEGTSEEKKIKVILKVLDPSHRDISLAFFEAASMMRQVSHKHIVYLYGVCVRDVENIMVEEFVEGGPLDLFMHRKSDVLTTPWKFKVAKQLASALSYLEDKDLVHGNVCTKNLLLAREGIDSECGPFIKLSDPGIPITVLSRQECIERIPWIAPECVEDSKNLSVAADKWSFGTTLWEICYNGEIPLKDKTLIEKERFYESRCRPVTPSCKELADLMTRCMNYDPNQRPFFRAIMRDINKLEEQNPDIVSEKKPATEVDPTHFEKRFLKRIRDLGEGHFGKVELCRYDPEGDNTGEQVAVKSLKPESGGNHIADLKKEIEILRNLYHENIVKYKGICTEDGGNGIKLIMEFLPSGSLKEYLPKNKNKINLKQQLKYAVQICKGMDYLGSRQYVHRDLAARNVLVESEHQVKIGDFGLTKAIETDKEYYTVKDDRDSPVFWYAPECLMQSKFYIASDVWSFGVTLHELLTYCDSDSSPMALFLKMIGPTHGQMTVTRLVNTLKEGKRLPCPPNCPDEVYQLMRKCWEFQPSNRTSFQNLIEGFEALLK
T2 sequence (O60674 whole entry): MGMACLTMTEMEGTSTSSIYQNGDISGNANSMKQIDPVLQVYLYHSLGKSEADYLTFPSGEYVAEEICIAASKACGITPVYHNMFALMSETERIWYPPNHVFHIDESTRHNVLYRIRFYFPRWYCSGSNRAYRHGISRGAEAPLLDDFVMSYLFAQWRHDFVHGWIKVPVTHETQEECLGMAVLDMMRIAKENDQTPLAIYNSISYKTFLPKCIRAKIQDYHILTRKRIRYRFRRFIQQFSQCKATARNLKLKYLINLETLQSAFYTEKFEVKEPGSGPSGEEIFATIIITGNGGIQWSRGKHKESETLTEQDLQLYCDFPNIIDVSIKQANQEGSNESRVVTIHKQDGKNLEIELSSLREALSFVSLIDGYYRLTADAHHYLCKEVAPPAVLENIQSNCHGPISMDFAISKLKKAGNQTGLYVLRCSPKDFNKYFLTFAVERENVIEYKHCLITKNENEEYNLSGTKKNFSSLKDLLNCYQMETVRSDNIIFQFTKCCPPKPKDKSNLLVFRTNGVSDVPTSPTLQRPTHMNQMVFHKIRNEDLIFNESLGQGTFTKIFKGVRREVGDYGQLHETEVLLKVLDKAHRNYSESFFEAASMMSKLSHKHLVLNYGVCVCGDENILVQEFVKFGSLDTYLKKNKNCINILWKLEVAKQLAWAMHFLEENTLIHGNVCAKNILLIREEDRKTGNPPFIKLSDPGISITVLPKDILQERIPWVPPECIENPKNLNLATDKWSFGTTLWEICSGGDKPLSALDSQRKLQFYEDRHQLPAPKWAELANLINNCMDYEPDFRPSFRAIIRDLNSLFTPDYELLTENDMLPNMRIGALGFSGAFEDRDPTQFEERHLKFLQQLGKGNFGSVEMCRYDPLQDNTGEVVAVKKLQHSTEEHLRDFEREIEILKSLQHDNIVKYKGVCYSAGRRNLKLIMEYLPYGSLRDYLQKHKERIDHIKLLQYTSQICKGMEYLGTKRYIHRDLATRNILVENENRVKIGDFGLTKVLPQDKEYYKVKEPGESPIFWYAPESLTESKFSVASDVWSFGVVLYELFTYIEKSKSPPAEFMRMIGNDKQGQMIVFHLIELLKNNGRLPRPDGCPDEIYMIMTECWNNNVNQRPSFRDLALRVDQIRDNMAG

Row | SMILES | IC50 (JAK1) [nM] | IC50 (JAK2) [nM] | IC50 (JAK3) [nM]
1 | CCC(CC)N(C)c1cc(C(=O)N2CCC(NC(=O)OC)CC2)nc(-c2cnn3ccsc23)n1 [Example 112, Methyl [1-({6-[methyl(pentan-3-yl)amino]-2-(pyrazolo[5,1-b][1,3]thiazol-7-yl)pyrimidin-4-yl}carbonyl)piperidin-4-yl]carbamate] | 350 | 3500 | 2900
2 | CCCOC(=O)NC1CCN(C(=O)c2cc(NC(C)(C)C)nc(-c3cnn4ccsc34)n2)CC1 [Example 82, Propyl (1-{[6-(tert-butylamino)-2-(pyrazolo[5,1-b][1,3]thiazol-7-yl)pyrimidin-4-yl]carbonyl}piperidin-4-yl)carbamate] | 58 | 9700 | 5800
3 | CCC(C)(C)Nc1cc(C(=O)N2CCC(NC(=O)OC)CC2)nc(-c2cnn3ccsc23)n1 [Example 80, Methyl [1-({6-[(2-methylbutan-2-yl)amino]-2-(pyrazolo[5,1-b][1,3]thiazol-7-yl)pyrimidin-4-yl}carbonyl)piperidin-4-yl]carbamate] | 110 | 820 | 2300
4 | CCC(CC)COc1cc(C(=O)N2CCC(NC(=O)C3CC3)CC2)nc(-c2cnn3ccsc23)n1 [Example 107, N-(1-{[6-(2-Ethylbutoxy)-2-(pyrazolo[5,1-b][1,3]thiazol-7-yl)pyrimidin-4-yl]carbonyl}piperidin-4-yl)cyclopropanecarboxamide] | 200 | 3500 | 1600
5 | CC(=O)NC1CCN(C(=O)c2cc(N[C@@H](C)C(C)(C)C)nc(-c3cnn4ccsc34)n2)CC1 [Example 4, N-(1-{[6-{[(2S)-3,3-Dimethylbutan-2-yl]amino}-2-(pyrazolo[5,1-b][1,3]thiazol-7-yl)pyrimidin-4-yl]carbonyl}piperidin-4-yl)acetamide] | 210 | 730 | 3000
6 | CC[C@H](C)Nc1nc(-c2cnn3ccsc23)nc(C(=O)N2CCC(NC(=O)OC)CC2)c1OC [Example 153, Methyl [1-({6-[(2S)-butan-2-ylamino]-5-methoxy-2-(pyrazolo[5,1-b][1,3]thiazol-7-yl)pyrimidin 4 yl}carbonyl)piperidin-4-yl]carbamate] | 210 | 7200 | 9000
7 | CCC(CC)CNc1cc(C(=O)N2CCC(NC(=O)C3CC3)CC2)nc(-c2cnn3ccsc23)n1 [Example 110, N-[1-({6-[(2-Ethylbutyl)amino]-2-(pyrazolo[5,1-b][1,3]thiazol-7-yl)pyrimidin-4-yl}carbonyl)piperidin-4-yl]cyclopropanecarboxamide] | 78 | 880 | > 10000
8 | COC(=O)NC1CCN(C(=O)c2cc(N[C@H](CO)C(C)(C)C)nc(-c3cnn4ccsc34)n2)CC1 [Example 63, Methyl (1-{[6-{[(2S)-1-hydroxy-3,3-dimethylbutan-2-yl]amino}-2-(pyrazolo[5,1-b][1,3]thiazol-7-yl)pyrimidin-4-yl]carbonyl}piperidin-4-yl)carbamate] | 180 | 7300 | –
9 | C[C@H](Nc1cc(C(=O)N2CCC(NC(=O)C3CCCC3)CC2)nc(-c2cnn3ccsc23)n1)C1CC1 [Example 166, N-1-[6-[(1S)-1-cyclopropylethyl]amino-2-(pyrazolo[5,1-b][1,3]thiazol-7-yl)pyrimidine-4-carbonyl]piperidin-4-ylcyclopentanecarboxamide] | 280 | – | 1300

Further molecules by falling IC50 (JAK1), results first:

Row | IC50 (JAK1) [nM] | IC50 (JAK2) [nM] | IC50 (JAK3) [nM] | SMILES
10 | 5200 | > 10000 | > 10000 | COC(=O)NC1CCN(C(=O)c2cc(N[C@@H]3CCNC3)nc(-c3cnn4ccsc34)n2)CC1 [Example 150, Methyl [1-({2-(pyrazolo[5,1-b][1,3]thiazol-7-yl)-6-[(3R)-pyrrolidin-3-ylamino]pyrimidin-4-yl}carbonyl)piperidin-4-yl]carbamate dihydrochloride]
11 | 2600 | > 10000 | > 10000 | COC(=O)NC1CCN(C(=O)c2cc(OCC3CN(C(=O)OC(C)(C)C)C3)nc(-c3cnn4ccsc34)n2)CC1 [Example 164, Tert-butyl 3-([6-4-[(methoxycarbonyl)amino]piperidine-1-carbonyl-2-(pyrazolo[5,1-b][1,3]thiazol-7-yl)pyrimidin-4-yl]oxymethyl)azetidine-1-carboxylate]
12 | 1600 | > 10000 | > 10000 | CC(Nc1cc(C(=O)N2CCC(NC(=O)C3CC3)CC2)nc(-c2cnn3ccsc23)n1)c1ccncc1 (centres unmarked) [Example 170, N-1-[2-(pyrazolo[5,1-b][1,3]thiazol 7 yl) 6 [1-(pyridin-4-yl)ethyl]aminopyrimidine-4-carbonyl]piperidin-4-ylcyclopropanecarboxamide]
13 | 1200 | > 10000 | 3200 | O=C(NC1CCN(C(=O)c2cc(N[C@H]3CC[C@H](O)CC3)nc(-c3cnn4ccsc34)n2)CC1)C1CC1 [Example 168, N-(1-6-[(trans-4-hydroxycyclohexyl)amino]-2-(pyrazolo[5,1-b][1,3]thiazol-7-yl)pyrimidine-4-carbonylpiperidin-4-yl)cyclopropanecarboxamide]
14 | 820 | > 10000 | – | COC(=O)NC1CCN(C(=O)c2cc(Oc3cccnc3)nc(-c3cnn4ccsc34)n2)CC1 [Example 156, Methyl (1-{[2-(pyrazolo[5,1-b][1,3]thiazol-7-yl)-6-(pyridin-3-yloxy)pyrimidin-4-yl]carbonyl}piperidin-4-yl)carbamate]
15 | 270 | 1600 | 1400 | COC(=O)NC1CCN(C(=O)c2nc(-c3cnn4ccsc34)nc(N[C@H](C)C(C)(C)C)c2OC)CC1 [Example 146, Methyl (1-{[6-{[(2R)-3,3-dimethylbutan-2-yl]amino}-5-methoxy-2-(pyrazolo[5,1-b][1,3]thiazol-7-yl)pyrimidin-4-yl]carbonyl}piperidin-4-yl)carbamate]
16 | 170 | 1600 | 7200 | C[C@@H](Nc1cc(C(=O)N2CCC(NC(=O)C3CC3)CC2)nc(-c2cnn3ccsc23)n1)C1CC1 [Example 46, N-(1-{[6-{[(1R)-1-Cyclopropylethyl]amino}-2-(pyrazolo[5,1-b][1,3]thiazol-7-yl)pyrimidin-4-yl]carbonyl}piperidin-4-yl)cyclopropanecarboxamide]
17 | 130 | 3100 | – | COC(=O)NC1CCN(C(=O)c2cc(OC3CCC3)nc(-c3cnn4ccsc34)n2)CC1 [Example 65, Methyl (1-{[6-(cyclobutyloxy)-2-(pyrazolo[5,1-b][1,3]thiazol-7-yl)pyrimidin-4-yl]carbonyl}piperidin-4-yl)carbamate]
